# Test results taken from US12590091B2, “1H-pyrrolo[3,2-C]pyridine and 1H-pyrrolo[2,3-C]pyridine derivatives as TLR9 inhibitors for the treatment of fibrosis” (BRISTOL-MYERS SQUIBB COMPANY, priority 2020, dated 2026).
# How the values were obtained:
# [1] = target: T1, human TLR9 (Homo sapiens, UniProt Q9NR96); assay: TLR9 inhibition reporter assay (HEK-Blue cells, SEAP reporter); type: cell-based; details: HEK-Blue cells overexpressing human TLR9, stimulated with ODN2006 5 nM, 22 hour incubation
# T1 construct: host or cells: HEK-Blue cells
# T1 sequence (Q9NR96 26-1032): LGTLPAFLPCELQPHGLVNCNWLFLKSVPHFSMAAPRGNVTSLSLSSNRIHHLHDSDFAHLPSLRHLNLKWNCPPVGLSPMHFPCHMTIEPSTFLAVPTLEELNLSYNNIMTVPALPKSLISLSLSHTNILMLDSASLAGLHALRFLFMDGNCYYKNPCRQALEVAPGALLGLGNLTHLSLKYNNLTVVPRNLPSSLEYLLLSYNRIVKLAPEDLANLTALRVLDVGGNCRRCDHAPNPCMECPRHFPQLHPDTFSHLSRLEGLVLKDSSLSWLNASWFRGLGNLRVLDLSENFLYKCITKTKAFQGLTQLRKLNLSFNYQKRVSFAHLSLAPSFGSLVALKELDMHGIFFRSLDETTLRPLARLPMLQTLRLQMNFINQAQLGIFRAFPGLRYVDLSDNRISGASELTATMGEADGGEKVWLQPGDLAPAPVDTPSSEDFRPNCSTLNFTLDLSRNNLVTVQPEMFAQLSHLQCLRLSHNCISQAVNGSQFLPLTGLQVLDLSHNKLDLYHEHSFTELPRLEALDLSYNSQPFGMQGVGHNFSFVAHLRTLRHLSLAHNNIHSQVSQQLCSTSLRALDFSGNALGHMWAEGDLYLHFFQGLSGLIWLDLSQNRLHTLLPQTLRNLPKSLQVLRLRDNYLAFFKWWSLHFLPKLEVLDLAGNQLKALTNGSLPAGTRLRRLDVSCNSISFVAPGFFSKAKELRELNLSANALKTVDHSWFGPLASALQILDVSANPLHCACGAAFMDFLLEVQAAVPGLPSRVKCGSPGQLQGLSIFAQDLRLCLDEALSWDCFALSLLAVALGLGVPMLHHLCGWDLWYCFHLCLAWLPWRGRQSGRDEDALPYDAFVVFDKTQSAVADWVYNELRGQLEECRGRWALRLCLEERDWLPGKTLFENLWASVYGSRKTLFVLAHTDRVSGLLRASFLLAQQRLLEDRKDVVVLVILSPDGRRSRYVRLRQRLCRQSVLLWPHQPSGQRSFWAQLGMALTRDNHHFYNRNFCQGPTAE
# Protocol: (§1) TLR7/8/9 Inhibition Reporter Assays
# HEK-Blue™-cells (Invivogen) overexpressing human TLR7, TLR8 or TLR9 receptors were used for screening inhibitors of these receptors using an inducible SEAP (secreted embryonic alkaline phosphatase) reporter gene under the control of the IFN-β minimal promoter fused to five NF-κB and AP-1-binding sites. Briefly, cells are seeded into Greiner 384 well plates (15000 cells per well for TLR7, 20,000 for TLR8 and 25,000 for TLR9) and then treated with test compounds in DMSO to yield a final dose response concentration range of 0.05 nM-50 μM. […] After a 22 hour incubation at 37° C., 5% CO2, SEAP levels are determined with the addition of HEK-Blue™ Detection reagent (Invivogen), a cell culture medium that allows for detection of SEAP, according to manufacturer's specifications. The percent inhibition is determined as the % reduction in the HEK-Blue signal present in wells treated with agonist plus DMSO alone compared to wells treated with a known inhibitor.
# [2] = target: T2, human TLR7 (Homo sapiens, UniProt Q9NYK1); assay: TLR7 inhibition reporter assay (HEK-Blue cells, SEAP reporter); type: cell-based; details: HEK-Blue cells overexpressing human TLR7, stimulated with gardiquimod 7.5 μM, 22 hour incubation
# T2 construct: host or cells: HEK-Blue cells
# T2 sequence (Q9NYK1 27-1049): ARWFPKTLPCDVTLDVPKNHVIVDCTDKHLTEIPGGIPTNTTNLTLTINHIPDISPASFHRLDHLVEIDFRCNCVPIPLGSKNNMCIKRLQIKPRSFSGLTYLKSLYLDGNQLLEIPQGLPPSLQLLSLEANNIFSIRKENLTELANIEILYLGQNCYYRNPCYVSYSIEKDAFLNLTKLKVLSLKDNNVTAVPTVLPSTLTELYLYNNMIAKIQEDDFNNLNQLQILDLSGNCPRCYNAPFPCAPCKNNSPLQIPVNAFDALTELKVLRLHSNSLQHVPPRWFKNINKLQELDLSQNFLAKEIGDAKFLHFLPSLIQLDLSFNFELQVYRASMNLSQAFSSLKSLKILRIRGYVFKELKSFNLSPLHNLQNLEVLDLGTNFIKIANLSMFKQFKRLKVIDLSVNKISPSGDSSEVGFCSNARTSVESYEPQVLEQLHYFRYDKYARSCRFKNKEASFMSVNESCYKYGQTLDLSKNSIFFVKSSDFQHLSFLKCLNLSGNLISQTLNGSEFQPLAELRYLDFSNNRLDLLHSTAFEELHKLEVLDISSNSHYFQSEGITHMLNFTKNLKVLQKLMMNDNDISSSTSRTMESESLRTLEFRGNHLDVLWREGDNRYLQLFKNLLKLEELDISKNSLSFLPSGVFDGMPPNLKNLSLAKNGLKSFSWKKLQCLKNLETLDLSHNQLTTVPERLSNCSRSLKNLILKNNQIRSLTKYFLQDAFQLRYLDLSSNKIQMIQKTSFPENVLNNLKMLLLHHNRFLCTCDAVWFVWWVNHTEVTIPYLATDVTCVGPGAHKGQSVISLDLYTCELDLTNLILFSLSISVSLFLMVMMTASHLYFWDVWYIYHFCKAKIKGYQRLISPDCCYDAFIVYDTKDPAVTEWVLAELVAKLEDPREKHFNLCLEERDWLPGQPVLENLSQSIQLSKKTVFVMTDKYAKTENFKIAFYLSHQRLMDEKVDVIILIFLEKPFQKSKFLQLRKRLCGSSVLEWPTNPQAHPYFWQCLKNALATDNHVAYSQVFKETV
# Protocol: as §1
# HEK-Blue™-cells (Invivogen) overexpressing human TLR7, TLR8 or TLR9 receptors were used for screening inhibitors of these receptors using an inducible SEAP (secreted embryonic alkaline phosphatase) reporter gene under the control of the IFN-β minimal promoter fused to five NF-κB and AP-1-binding sites. Briefly, cells are seeded into Greiner 384 well plates (15000 cells per well for TLR7, 20,000 for TLR8 and 25,000 for TLR9) and then treated with test compounds in DMSO to yield a final dose response concentration range of 0.05 nM-50 μM. After a 30 minute compound pre-treatment at room temperature, the cells are then stimulated with a TLR7 ligand (gardiquimod at a final concentration of 7.5 μM), TLR8 ligand (R848 at a final concentration of 15.9 μM) or TLR9 ligand (ODN2006 at a final concentration of 5 nM) to activate NF-κB and AP-1 which induce the production of SEAP. After a 22 hour incubation at 37° C., 5% CO2, SEAP levels are determined with the addition of HEK-Blue™ Detection reagent (Invivogen), a cell culture medium that allows for detection of SEAP, according to manufacturer's specifications. The percent inhibition is determined as the % reduction in the HEK-Blue signal present in wells treated with agonist plus DMSO alone compared to wells treated with a known inhibitor.
Structure (SMILES),IC50 [1],IC50 [2]
"Cc1nc(-c2ccc(CN3C[C@H]4CC[C@@H]3CN4CC(C)(C)CO)cc2)cc2c1cc(-c1ccc(S(C)(=O)=O)cc1)n2C [Example 45, 3-((1R,4R)-5-(4-(1,4-Dimethyl-2-(4-(methylsulfonyl)phenyl)-1H-pyrrolo[3,2-c]pyridin-6-yl)benzyl)-2,5-diazabicyclo[2.2.2]octan-2-yl)-2,2-dimethylpropan-1-ol]",68 nM,750 nM
"Cc1nc(-c2ccc(N3CCOCC3)cc2)cc2c1cc(-c1ccc(S(C)(=O)=O)cc1)n2C [Example 86, 4-(4-(1,4-dimethyl-2-(4-(methylsulfonyl)phenyl)-1H-pyrrolo[3,2-c]pyridin-6-yl)phenyl)morpholine]",1070 nM,
"Cc1nc(-c2ccc(N3CCN(CCc4ccc(I)cc4)CC3)cc2)cc2c1cc(-c1ccc(S(C)(=O)=O)cc1)n2C [Example 110, 6-(4-(4-(4-iodophenethyl)piperazin-1-yl)phenyl)-1,4-dimethyl-2-(4-(methylsulfonyl)phenyl)-1H-pyrrolo[3,2-c]pyridine]",58 nM,
"Cc1nc(-c2ccc(N3CCN(Cc4ccc(I)cc4)CC3)cc2)cc2c1cc(-c1ccc(S(C)(=O)=O)cc1)n2C [Example 112, 6-(4-(4-(4-iodobenzyl)piperazin-1-yl)phenyl)-1,4-dimethyl-2-(4-(methylsulfonyl)phenyl)-1H-pyrrolo[3,2-c]pyridine]",87 nM,
"COc1nc(-c2ccc(N3CCN(C(C)C)CC3)cc2)cc2c1cc(-c1ccc(S(C)(=O)=O)cc1)n2C [Example 119, 6-[4-(4-isopropylpiperazin-1-yl)phenyl]-4-methoxy-1-methyl-2-(4-methylsulfonylphenyl) pyrrolo[3,2-c]pyridine]",543 nM,
"COc1nc(-c2ccc(CN3CCN(C(C)C)CC3)cc2)cc2c1cc(-c1ccc(S(C)(=O)=O)cc1)n2C [Example 126, 6-(4-((4-isopropylpiperazin-1-yl)methyl)phenyl)-4-methoxy-1-methyl-2-(4-(methylsulfonyl)phenyl)-1H-pyrrolo[3,2-c]pyridine]",1260 nM,
"CC(C)N1CCN(Cc2ccc(-c3cc4c(cc(-c5ccc(S(C)(=O)=O)cc5)n4C)c(N4CCOCC4)n3)cc2)CC1 [Example 127, 4-(6-(4-((4-isopropylpiperazin-1-yl)methyl)phenyl)-1-methyl-2-(4-(methylsulfonyl)phenyl)-1H-pyrrolo[3,2-c]pyridin-4-yl)morpholine]",422 nM,

# The remaining compounds from weak to strong by IC50 [1], led by results:
IC50 [1],IC50 [2],Structure (SMILES)
557 nM,7800 nM,"Cc1nc(-c2ccc(CN3CCN(CCC(C)(C)O)CC3)cc2)cc2c1cc(-c1ccc(S(C)(=O)=O)cc1)n2C(F)F [Example 117, 4-[4-[[4-[1-(difluoromethyl)-4-methyl-2-(4-methylsulfonylphenyl)pyrrolo[3,2-c]pyridin-6-yl]phenyl]methyl]piperazin-1-yl]-2-methyl-butan-2-ol]"
296 nM,,"Cc1nc(-c2ccc(C3(O)CC4CCC(C3)N4C(C)C)cc2F)cc2c1cc(-c1ccc(S(C)(=O)=O)cc1)n2C [Example 103, (1R,3r,5S)-3-(4-(1,4-dimethyl-2-(4-(methylsulfonyl)phenyl)-1H-pyrrolo[3,2-c]pyridin-6-yl)-3-fluorophenyl)-8-isopropyl-8-azabicyclo[3.2.1]octan-3-ol]"
153 nM,,"Cc1nc(-c2ccc(N3CCN(Cc4ccc(Br)cc4)CC3)cc2)cc2c1cc(-c1ccc(S(C)(=O)=O)cc1)n2C [Example 113, 6-(4-(4-(4-bromobenzyl)piperazin-1-yl)phenyl)-1,4-dimethyl-2-(4-(methylsulfonyl)phenyl)-1H-pyrrolo[3,2-c]pyridine]"
113 nM,,"Cc1nc(-c2ccc(N3CCN(CCc4ccc(Br)cc4)CC3)cc2)cc2c1cc(-c1ccc(S(C)(=O)=O)cc1)n2C [Example 111, 6-(4-(4-(4-bromophenethyl)piperazin-1-yl)phenyl)-1,4-dimethyl-2-(4-(methylsulfonyl)phenyl)-1H-pyrrolo[3,2-c]pyridine]"
